Laboratory results from patent publication US20080234232A1, “Methods and compositions for targeting AFAP” (priority 2007, published 2008).

What was measured:
[1] = test system: AFAP-110 colocalization with cSrc and cSrc activation; assay: Immunofluorescence: PMA-induced colocalization of AFAP-110 with cSrc and cSrc activation in mouse embryo fibroblasts; assay type: cell-based
Procedure: FIG. 1: LY294002 blocks PMA-induced colocalization between AFAP-110 and cSrc, and subsequent cSrc activation. A) SYF cells transiently co-expressing GFP-AFAP-110 and cSrc were untreated (panels a-d), treated with 100 nM PMA for 15 minutes (panels e-h), or treated with PMA and either 6 μM bisindolylmaleimide (panels i-I), 10 μM LY294002 (panels m-p) or 50 nM Wortmannin (panels q-t). Fixed cells were immunolabeled with avian specific cSrc antibody, EC10 (1:500), and phospho-Src-family (Tyr416) (1:250) as described in the methods section. Secondary antibodies used were Atexa 546 anti-mouse for EC10 and Alexa 647 anti-rabbit for phospho-Src-family (Tyr416). A merged image was generated to determine colocalization between AFAP-110 and cSrc. Bars represent 20 μM.
D) Knockout MEFs (p85−/−) were transfected with GFP-AFAP-110 and cSrc. Fixed cells were immunolabeled with EC10 (1:500) and phospho-Src-family (Tyr416) (1:250) as described in the methods section. Secondary antibodies used were Alexa 546 anti-mouse for EC10 and Alexa 647 anti-rabbit for phospho-Src-family (Tyr416). Cells treated with 100 riM PMA for 15 minutes (panels e-h). Images were merged to determine colocalization of cSrc and GFP-AFAP-110. Bars represent 20 μm. Mouse embryo fibroblast cells that express the p85α isoform of the PI3K regulatory subunit (p85α+/+) were transfected with GFP-AFAP-110 and cSrc. Fixed cells were immunolabeled with EC10 (1:500) and phospho-Src-family (Tyr416) (1:250) as described in the methods section. Secondary antibodies used were Alexa 546 anti-mouse for EC10 and Alexa 647 anti-rabbit for phospho-Src-family (Tyr416). Images were merged to determine colocalization of cSrc and GFP-AFAP-110. Bars represent 20 μm.
(§1) SYF, SYF/cSrc, p85α+/+ and p85−/− cells were cultured in standard culture media. Transient transfections of SYF, SYF/cSrc, p85α+/+ cells for immunofluorescence were carried out using LipofectAMINE™ Reagent (Invitrogen) as per manufacturer's protocol. Briefly, Approximately 5.0-8.0×10^4 cells per well were transfected at 50-70% confluent on coverstips with 2-4 μg of plasmid DNA and incubated for 3-4 hours. Thirty-six hours after transfection, cells were serum starved for 12 hours, treated, and subsequently fixed and permeablized as previously described (Qian, Y. et. al., 1998). Cells were treated with a PKC activator, 100 nM PMA for 5 or 15 minutes or in combination with the following pretreatments; a PKC inhibitor, 6 μM bisindolylmaleimide [I] for six hours; or PI3K inhibitor, 10 μM LY294002 for six hours; 50 nM Wortmannin for 30 minutes; and/or a Src family inhibitor, 5 μM PP1 for six hours. For actin labeling, a 1:500 dilution of TRITC-phalloidin was used as labeled in the figures. Primary antibody concentrations used were diluted in 5% Bovine Serum Albumin (BSA) dissolved in 1× phosphate-buffered saline (PBS): EC10 mAb-1:500; Phospho-Src Family (Y416) pAb-1:250; Anti-PI-3,4,5-P3 mAb-1:100; Anti-AFAP-110 (F1)pAb-1:1000; Anti-cSrc pAb-1:500; Anti-flag-1:1000. All fluorescent secondary and phalloidin antibodies were diluted 1:200 in 5% BSA, and are labeled according to figure legends. Cells were washed and mounted on slides with Fluoromount-G (Fisher). A Zeiss LSM 510 confocal microscope was used to scan images of about 1 μM in thickness. To prevent cross-contamination between the different fluorochromes, each channel was imaged sequentially using the multitrack recording module before merging the images. For all figures, representative cells are shown (>100 cells examined per image shown).
We utilized SYF cell lines as a model system, mouse embryo fibroblasts engineered to contain null mutations in the c-src,fyn, and c-yes genes (Klinghoffer, R. A. et. al., 1999). The cells were transiently co-transfected with constructs that encode cSrc and GFP-tagged AFAP-110, as previously described (Gatesman, A. et. al., 2004). […]

PI3K = assay: Immunofluorescence of Ptdlns-3,4,5-P3 production in SYF/cSrc cells; assay type: cell-based, mouse; settings: 100 nM PMA
Procedure: SYF/cSrc cells were serum-starved for 24 hours. Cells stimulated with 10% serum (panels c-f), 100 nM PMA for 5 (panels g-h), or 15 minutes (panels i-j); as well as treated with 100 nM PMA in combination with 6 μM bisindolylmaleimide [I] (panels k-I) or 50 nM wortmannin (panels m-n). Cells treated with 100 nM PMA in combination with 5 μM PP1 (panel o-p) and Ptdlns-3,4,5-P3 levels evaluated. Cells were immunolabeled with a PI-3,4,5-P3-specific antibody (Echelon, Inc.;1:100) and TRITC-phalloidin (1:500). Secondary antibody for anti-PI-3,4,5-P3 (1:100) was Alexa IgM 647 anti-mouse (1:200). Bars represent 20 μm.
as §1
Ptdlns-3,4,5-P3 production was measured using the anti-Ptdlns-3,4,5-P3 antibody (Echelon, inc.) for analysis by immunofluorescence and contrasted with stress filament integrity, measured using TRITC-phalloidin as previously described (Chen, R. et. al., 2002; Hama, H. et. al., 2004). SYF/cSrc cells were left untreated or treated with serum as controls for PI3K activation. […] In addition, SYF/cSrc cells were stimulated with PMA for 5 or 15 minutes.

[2] = p85−/− cells, 100 nM PMA 15 min

CCCCCCCCCCCCCC(=O)O[C@@H]1[C@@H](C)[C@@]2(O)[C@@H](C=C(CO)C[C@]3(O)C(=O)C(C)=C[C@@H]23)[C@@H]2C(C)(C)[C@]12OC(C)=O [PMA, Phorbol 12-myristate 13-acetate] was tested, and the “activation of cSrc (anti-phospho-cSrc Y416 immunoreactivity) on PMA treatment” value ([1]; SYF cells, 100 nM PMA 15 min) was “evidence for activation of cSrc”, the “colocalization of GFP-AFAP-110 with cSrc on PMA treatment” value ([1]; SYF cells, 100 nM PMA 15 min) was “caused GFP-AFAP-110 to colocalize with cSrc” and the “cSrc activation on PMA treatment” value ([1]; p85α+/+ cells) was “enables PMA to induce”. For the same molecule, the “colocalization of AFAP-110 with cSrc on PMA treatment” value ([1]; p85α+/+ cells) was “enables PMA to induce”, the “cSrc activation on PMA treatment” value [1, 2] was “no evidence for cSrc activation” and the “colocalization of AFAP-110 with cSrc on PMA treatment” value [1, 2] was “failed to induce significant colocalization”. For the same molecule, the “Ptdlns-3,4,5-P3 production” value (PI3K; 5 minutes) was “able to induce” and the “Ptdlns-3,4,5-P3 levels” value (PI3K; 15 minutes) was “consistently reduced”.
